Experimental data from patent US7329653B2, “Cyclohexylphenyl vasopressin agonists” (Wyeth, priority 2001, dated 2008).

Assays:
[1] = target: T1, vasopressin V2 receptors (Rattus norvegicus, UniProt Q00788); experiment: Vasopressin V2 agonist effects in normal conscious water-loaded rats; assay type: in vivo; settings: vs control; oral dose of 10 mg/Kg; urine collected for four hours; Sprague-Dawley (CD) rats
T1 construct: Male or female normotensive Sprague-Dawley rats; tissue Charles River Laboratories, Inc; host or cells: whole animal (Sprague-Dawley rat; kidney collecting ducts per the background)
Source text: Vasopressin V2 Agonist Effects of Test Compounds in Normal Conscious Water-Loaded Rats
Male or female normotensive Sprague-Dawley rats (Charles River Laboratories, Inc., Kingston, N.Y.) of 350-500 g body weight were supplied with standard rodent diet (Purina Rodent Lab. Chow 5001) and water ad libitum. On the day of test, rats were placed individually into metabolic cages equipped with devices to separate the feces from the urine and containers for collection of urine. A test compound or a reference agent was given at an oral dose of 10 mg/Kg in a volume of 10 mL/Kg. The vehicle used was 2.5% preboiled corn starch in 20% dimethylsulfoxide (DMSO). Thirty minutes after dosing the test compound, rats were gavaged with water at 30 mL/Kg into the stomach using a feeding needle. During the test, rats were not provided with water or food. Urine was collected for four hours after dosing of the test compound. At the end of four hours, urine volume was measured. Urinary osmolality was determined using a Fiske One-Ten Osmometer (Fiske Associates, Norwood, Mass., 02062) or an Advanced CRYOMATIC Osmometer, Model 3C2 (Advanced Instruments, Norwood, Mass.). Determinations of Na^+, K^+ and Cl^− ion were carried out using ion specific electrodes in a Beckman SYNCHRON EL-ISE Electrolyte System analyzer. The urinary osmolality should increase proportionally. In the screening test, two rats were used for each compound. If the difference in the urine volume of the two rats was greater than 50%, a third rat was used.

T1 sequence (Q00788 whole entry): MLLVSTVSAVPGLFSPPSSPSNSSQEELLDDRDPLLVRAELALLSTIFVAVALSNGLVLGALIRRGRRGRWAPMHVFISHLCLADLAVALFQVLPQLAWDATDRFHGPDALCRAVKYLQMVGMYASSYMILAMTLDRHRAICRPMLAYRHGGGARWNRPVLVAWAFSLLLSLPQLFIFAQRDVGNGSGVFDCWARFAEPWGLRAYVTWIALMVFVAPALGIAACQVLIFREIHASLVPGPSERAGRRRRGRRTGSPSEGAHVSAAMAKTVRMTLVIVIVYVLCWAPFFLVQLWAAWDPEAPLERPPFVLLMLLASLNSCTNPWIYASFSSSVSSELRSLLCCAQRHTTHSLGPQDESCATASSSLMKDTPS

Row | SMILES | Urinary Osmolality (% increase) [1] | Urine Volume (% decrease) [1] | melting point
1 | CCN1c2ccccc2N(C(=O)c2ccc(C3CCCCC3)cc2)Cc2cccnc21 [Example 4, (4-Cyclohexyl-phenyl)-(5,11-dihydro-11-ethyl-5H-pyrido[2,3-b][1,5]benzodiazepin-6-yl)-methanone] | 132 % increase | 64 % decrease | 
2 | CN1c2ccccc2N(C(=O)c2ccc(C3CCCCC3)cc2)Cc2cccnc21 [Example 3, (4-Cyclohexyl-phenyl)-(5,11-dihydro-11-methyl-5H-pyrido[2,3-b][1,5]benzodiazepin-6-yl)-methanone] | 129 % increase | 51 % decrease | 
3 | O=C(c1ccc(C2CCCCC2)cc1)N1Cc2cccn2Cc2ccccc21 [Example 1, 10-(4-Cyclohexyl-benzoyl)-10,11-dihydro-5H-pyrrolo[2,1-c][1,4]benzodiazepine] | 232 % increase | 61 % decrease | 127 to 129 °C
4 | O=C(c1ccc(C2CCCCC2)cc1)N1Cc2cccnc2Nc2ccccc21 [Example 2, (4-Cyclohexyl-phenyl)-(5,11-dihydro-pyrido[2,3-b][1,5]benzodiazepin-6-yl)-methanone] | 51 % increase | 48 % decrease | 230 to 233 °C
5 | CN1c2ccccc2CN(C(=O)c2ccc(C3CCCCC3)cc2)c2ccccc21 [Example 6, (4-Cyclohexyl-phenyl)-(5,11-dihydro-5-methyl-10H-dibenzo[b,e][1,4]diazepin-10-yl)-methanone] |  |  | 111 to 112 °C
6 | O=C(c1ccc(C2CCCCC2)cc1)N1Cc2cccn2Cc2ncccc21 [Example 7, (4-Cyclohexyl-phenyl)-(4H,10H-3a,5,9-triaza-benzo[f]azulen-9-yl)-methanone] |  |  | 150 to 152 °C
7 | O=C(c1ccc(C2CCCCC2)cc1)N1Cc2ccccc2Nc2ccccc21 [Example 5, (4-Cyclohexyl-phenyl)-(5,11-dihydro-10H-dibenzo[b,e][1,4]diazepin-10-yl)methanone] |  |  | 175 to 176 °C
8 | O=C(c1ccc(C2CCCCC2)cc1)N1CCCCc2sccc21 [Example 8, (4-Cyclohexyl-phenyl)-(5,6,7,8-tetrahydro-thieno[3,2-b]azepin-4-yl)-methanone] |  |  | 145 to 148 °C
